Data set [1] relates to Staphylococcus aureus Smith. In words: Experimental infections in mice (intraperitoneal). The note with it: 0.5 h, S. aureus Smith, intraperitoneal infection in mice, 3 × LD50 challenge, treatment at 30 minutes after infection, read-out: ED50 (cumulative dose). Type of data set: in vivo. The method, then:
(§1) ^(2) Intraperitoneal infection in mice with a 3 × LD50
(§2) challenge; treatments at 30 minutes after infection for S. aureus and 30,
(§3) 90, 360 minutes for E. coli and K. pneumoniae.

The subject of data set [2] is Klebsiella pneumoniae FI 5724. In words: Experimental infections in mice (intraperitoneal). Type of data set: in vivo. The note with it: FI5724, 6 h, K. pneumoniae FI 5724, intraperitoneal infection in mice, 3 × LD50 challenge, treatments at 30, 90, 360 minutes, read-out: ED50 (cumulative dose). On the procedure:
as §1, §2, §3

A further data set concerns Escherichia coli G. In words: Experimental infections in mice (intraperitoneal). In kind it is in vivo. The note with it: 6 h, E. coli G, intraperitoneal infection in mice, 3 × LD50 challenge, treatments at 30, 90, 360 minutes, read-out: ED50 (cumulative dose). On the procedure:
as §1, §2, §3

Data set [3] in a line: Plasma half-life after a single intravenous dose in the mouse. Type of data set: in vivo. Conditions: 10 mg/kg, single intravenous dose 10 mg/kg, two compartments open model. On the procedure: | ^(1) Determined after a single intravenous dose (10 mg/kg) in the | mouse; the plasma concentration vs. time data were best described | according to a two compartments open model with the tabulated

For the next data set, the system named is S. pyogenes ATCC 12384. In words: In-vitro antibacterial activity, agar dilution technique. Type of data set: cell-based. Conditions: Streptococcus pyogenes. The source says:
(§4) In-Vitro Antibacterial Activity (γ/ml)
(§5) Against Gram-positive And Gram-negative bacteria
(§6) As Determined By The Agar Dilution Technique

For data set [4], the system named is Pseudomonas aeruginosa 2598. The data set is described as above. In kind it is cell-based.
Text: as §4, §5, §6

In data set [5] the test system is E. coli 026:B6 cef R (IV). The data set is described as above. Conditions: Escherichia coli. In kind it is cell-based.
Text: as §4, §5, §6

Data set [6] relates to Serratia marcescens ATCC 2902. Described as above. In kind it is cell-based.
Text: as §4, §5, §6

For data set [7], the system named is Klebsiella aerogenes 1522 E. The description is as above. Type of data set: cell-based.
Text: as §4, §5, §6

The test system of data set [8] is Citrobacter Freundii ATCC 8090. The data set is described as above. In kind it is cell-based. Conditions: ATCC8090.
Text: as §4, §5, §6

Another data set relates to Escherichia coli 026:B6. The data set is described as above. In kind it is cell-based.
Text: as §4, §5, §6

The test system of the next data set is S. Epidermidis. The description is as above. Conditions: Staphylococcus epidermidis. In kind it is cell-based.
Text: as §4, §5, §6

Data set [9] has as its system Proteus morganii ATCC 25830. Described as above. In kind it is cell-based. The note with it: Morganella morganii, ATCC25830.
Text: as §4, §5, §6

The next data set deals with K. aerogenes 1082 E. Described as above. Type of data set: cell-based. The note with it: Klebsiella aerogenes.
Text: as §4, §5, §6

In data set [10] the test system is Staphylococcus aureus Smith. The data set is described as above. Type of data set: cell-based.
Text: as §4, §5, §6

Another data set concerns S. Aureus 209 P. The data set is described as above. The note with it: Staphylococcus aureus. Type of data set: cell-based.
Text: as §4, §5, §6

A further data set concerns P. rettgeri ATCC 9250. The data set is described as above. In kind it is cell-based. The note with it: Providencia rettgeri, ATCC9250.
Text: as §4, §5, §6

For data set [11], the system named is Streptococcus faecalis (4 Strains). The description is as above. In kind it is cell-based. The note with it: Enterococcus faecalis.
Text: as §4, §5, §6

Setting [12] is: ATCC12384, S. pyogenes ATCC 12384, agar dilution technique, read-out: In-Vitro Antibacterial Activity.

SMILES strings stand for the structures. In brackets after ≈: the same amount, converted by molar mass. Where two headings read alike, the source gives them in different places.

By ED50 is commonly meant the dose that gives a 50% effect, or the effect in half of the subjects. As for `C[C@@H](O)[C@H]1C(=O)N2C(C(=O)[O-])=C(c3ccc(C[n+]4ccccc4)cc3)S[C@H]12` [Compound 5, (5R,6S)-6-[(1R)-hydroxyethyl]-2-[4-(pyridiniomethyl)phenyl]penem-3-carboxylate], the ED50 in data set [1] turned out to be 0.06 mg/kg; in [2] it was 0.8 mg/kg; in the data set on Escherichia coli G it was 0.5 mg/kg. For the same compound, the half-life came to 5 min in data set [3] (read-out: Plasma half-life t1/2 α) and 15 min in data set [3] (read-out: Plasma half-life t1/2 β). Besides, the MIC is 0.011 µg/mL (≈ 0.0288 µM) in the data set on S. pyogenes ATCC 12384 (setting [12]); 25 µg/mL (≈ 65.4 µM) in data set [4]; 0.38 µg/mL (≈ 0.994 µM) in data set [5]; 0.76 µg/mL (≈ 1.99 µM) in [6] (ATCC2902, Serratia marcescens ATCC 2902, agar dilution technique, read-out: In-Vitro Antibacterial Activity); 0.38 µg/mL (≈ 0.994 µM) in data set [7]; 0.19 µg/mL (≈ 0.497 µM) in data set [8]. The MIC with Escherichia coli 026:B6 stood at 0.19 µg/mL (≈ 0.497 µM); against S. Epidermidis, 0.19 µg/mL (≈ 0.497 µM); in data set [9] it was 0.38 µg/mL (≈ 0.994 µM); with K. aerogenes 1082 E, 0.38 µg/mL (≈ 0.994 µM); in data set [10], 0.011 µg/mL (≈ 0.0288 µM); against S. Aureus 209 P it was 0.005 µg/mL (≈ 0.0131 µM). In addition, the MIC against P. rettgeri ATCC 9250 was found to be 0.38 µg/mL (≈ 0.994 µM); in data set [11], 0.06 µg/mL (≈ 0.157 µM).
As to `CC(=O)OCC1=C(C(=O)O)N2C(=O)C(C(C)O)C2S1` (stereo not drawn) [FCE 21420], the MIC in the data set with S. pyogenes ATCC 12384 (setting [12]) is 0.046 µg/mL (≈ 0.16 µM); in data set [4], 100 µg/mL (≈ 348 µM); in data set [5] it was 3.12 µg/mL (≈ 10.9 µM); in data set [6] (Serratia marcescens, ATCC2902, read-out: In-Vitro Antibacterial Activity) it was 3.12 µg/mL (≈ 10.9 µM); in data set [7], 1.55 µg/mL (≈ 5.4 µM); in data set [8] it was 1.52 µg/mL (≈ 5.29 µM). Further, the MIC in the data set on Escherichia coli 026:B6 was 0.76 µg/mL (≈ 2.65 µM); in the data set with S. Epidermidis, 0.76 µg/mL (≈ 2.65 µM); in data set [9], 1.52 µg/mL (≈ 5.29 µM); against K. aerogenes 1082 E it was 0.76 µg/mL (≈ 2.65 µM); in data set [10], 0.046 µg/mL (≈ 0.16 µM); with S. Aureus 209 P, 0.046 µg/mL (≈ 0.16 µM). Further, the results for the MIC (in the data set with P. rettgeri ATCC 9250; in [11]) were 1.52 µg/mL (≈ 5.29 µM) and 0.1 µg/mL (≈ 0.348 µM), respectively.
With `CO/N=C(\C(=O)N[C@@H]1C(=O)N2C(C(=O)O)=C(COC(C)=O)CS[C@H]12)c1csc(N)n1` [Cefotaxime], the MIC in the data set on S. pyogenes ATCC 12384 (ATCC12384, read-out: In-Vitro Antibacterial Activity) was 1.25 µg/mL (≈ 2.74 µM); in data set [4] it was 25 µg/mL (≈ 54.9 µM); in [5], 1.25 µg/mL (≈ 2.74 µM); in data set [7], 0.095 µg/mL (≈ 0.209 µM); with Escherichia coli 026:B6 it was 0.38 µg/mL (≈ 0.834 µM); in the data set on S. Epidermidis it was 6.25 µg/mL (≈ 13.7 µM). Also, the MIC in data set [9] came to 0.037 µg/mL (≈ 0.0812 µM); against K. aerogenes 1082 E, 6.25 µg/mL (≈ 13.7 µM); in data set [10] it was 0.77 µg/mL (≈ 1.69 µM); with S. Aureus 209 P, 1.56 µg/mL (≈ 3.43 µM); against P. rettgeri ATCC 9250, 0.018 µg/mL (≈ 0.0395 µM); in data set [11], 10 µg/mL (≈ 22 µM).

The values above are taken from US4863914A, “Penem derivatives” (Farmitalia Carlo Erba, priority 1985, dated 1989).
